Reference: ChEMBL document CHEMBL5104198, “Probing Factor Xa Protein-Ligand Interactions: Accurate Free Energy Calculations and Experimental Validations of Two Series of High-Affinity Ligands” (J Med Chem, 2022)

What follows are compounds tested against T1, Coagulation factor X (Homo sapiens, UniProt P00742) (assay: Inhibition of human fXa assessed as inhibition constant using Cbz-D-Arg-Gly-L-Arg-pNA as substrate preincubated for 30 mins followed by substrate addition and measured after 60 mins by […] method). Settings: not given.
T1 sequence (P00742 41-179 limits assumed): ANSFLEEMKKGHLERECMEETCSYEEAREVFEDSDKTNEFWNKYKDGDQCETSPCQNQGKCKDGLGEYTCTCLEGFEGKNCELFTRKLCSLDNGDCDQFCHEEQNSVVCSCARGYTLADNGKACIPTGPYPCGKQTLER
T1 sequence (P00742 235-488 limits assumed): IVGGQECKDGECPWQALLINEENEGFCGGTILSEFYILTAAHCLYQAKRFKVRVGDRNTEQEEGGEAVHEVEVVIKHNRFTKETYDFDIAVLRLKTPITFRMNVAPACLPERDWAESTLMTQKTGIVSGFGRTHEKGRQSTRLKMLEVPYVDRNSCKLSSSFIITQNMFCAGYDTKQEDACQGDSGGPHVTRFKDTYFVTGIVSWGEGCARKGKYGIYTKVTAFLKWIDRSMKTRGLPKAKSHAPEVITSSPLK

Compound | Ki
CC(C)N1CCC(NC(=O)c2ccn(Cc3cc(-c4ccc(Cl)s4)on3)c2)CC1 | 1240 nM
CC(C)N1CCC(NC(=O)c2cn(Cc3cc(-c4ccc(Cl)s4)on3)c3ncccc23)CC1 | 65 nM
CC(C)N1CCC(NC(=O)c2cccn2Cc2cc(-c3ccc(Cl)s3)on2)CC1 | 57 nM
CC(C)N1CCC(NC(=O)c2cc3ccccc3n2Cc2cc(-c3ccc(F)s3)on2)CC1 | 70 nM
CC(C)N1CCC(NC(=O)c2cc3ccccc3n2Cc2cc(-c3ccc(I)s3)on2)CC1 | 188 nM
CC(C)N1CCC(NC(=O)c2cn(Cc3cc(-c4ccc(Cl)s4)on3)cn2)CC1 | 14800 nM
CC(C)N1CCC(NC(=O)c2cc3ccccc3n2CC(=O)Nc2ccc(F)cc2)CC1 | 63 nM
CC(C)N1CCC(NC(=O)c2ccnn2Cc2cc(-c3ccc(Cl)s3)on2)CC1 | 52 nM
CC(C)N1CCC(NC(=O)c2cc3ccccc3n2Cc2cc(-c3cccs3)on2)CC1 | 162 nM
CC(C)N1CCC(NC(=O)c2cn(CC(=O)Nc3ccc(Cl)cc3)cn2)CC1 | 20500 nM
CC(C)N1CCC(NC(=O)c2cccn2CC(=O)Nc2ccc(Cl)cc2)CC1 | 51 nM
CC(C)N1CCC(NC(=O)c2cn(Cc3cc(-c4ccc(Cl)s4)on3)c3ccccc23)CC1 | 241 nM
CC(C)N1CCC(NC(=O)c2cn(CC(=O)Nc3ccc(Cl)cc3)c3ncccc23)CC1 | 2930 nM
CC(C)N1CCC(NC(=O)c2nn(Cc3cc(-c4ccc(Cl)s4)on3)c3ccccc23)CC1 | 9 nM
CC(C)N1CCC(NC(=O)c2cn(CC(=O)Nc3ccc(Cl)cc3)c3ccccc23)CC1 | 5120 nM
CC(C)N1CCC(NC(=O)c2cc3ccccc3n2CC(=O)Nc2ccccc2)CC1 | 204 nM
Cc1ccc(-c2cc(Cn3c(C(=O)NC4CCN(C(C)C)CC4)cc4ccccc43)no2)s1 | 55 nM
Cc1ccc(NC(=O)Cn2c(C(=O)NC3CCN(C(C)C)CC3)cc3ccccc32)cc1 | 56 nM
CC(C)N1CCC(NC(=O)c2nn(CC(=O)Nc3ccc(Cl)cc3)c3ccccc23)CC1 | 1740 nM
CC(C)N1CCC(NC(=O)c2ccn(CC(=O)Nc3ccc(Cl)cc3)n2)CC1 | 204 nM

Continued, values first:

Ki | Compound
0.5 nM | CC(C)N1CCC(NC(=O)c2nc3ccccc3n2Cc2cc(-c3ccc(Cl)s3)on2)CC1
6 nM | CC(C)N1CCC(NC(=O)c2nc3ccccc3n2CC(=O)Nc2ccc(Cl)cc2)CC1
37 nM | CC(C)N1CCC(NC(=O)c2ccn(Cc3cc(-c4ccc(Cl)s4)on3)n2)CC1
4 nM | CC(C)N1CCC(NC(=O)c2cc3cccnc3n2Cc2cc(-c3ccc(Cl)s3)on2)CC1
8 nM | CC(C)N1CCC(NC(=O)c2c3ccccc3nn2Cc2cc(-c3ccc(Cl)s3)on2)CC1
7 nM | CC(C)N1CCC(NC(=O)c2cc3ccccc3n2CC(=O)Nc2ccc(I)cc2)CC1
11 nM | CC(C)N1CCC(NC(=O)c2cc3cccnc3n2CC(=O)Nc2ccc(Cl)cc2)CC1
13 nM | C#Cc1ccc(-c2cc(Cn3c(C(=O)NC4CCN(C(C)C)CC4)cc4ccccc43)no2)s1
49 nM | C#Cc1ccc(NC(=O)Cn2c(C(=O)NC3CCN(C(C)C)CC3)cc3ccccc32)cc1
12 nM | CC(C)N1CCC(NC(=O)c2cc3ccccc3n2Cc2cc(-c3ccc(Br)s3)on2)CC1

What follows are compounds tested against T1, Coagulation factor X (assay: Inhibition of human fXa at 100 uM using Cbz-D-Arg-Gly-L-Arg-pNA as substrate preincubated for 30 mins followed by substrate addition and measured after 60 mins by […] method relative to control). Settings: time 90.0 min.

inhibition | Compound
66% | CC(C)N1CCC(NC(=O)c2ccn(CC(=O)Nc3ccc(Cl)cc3)c2)CC1
